# Where two headings read alike, the source gives them in different places.
# Columns and labels:
# [1] = tested on: CHO cell line that expresses an antibody; experiment: Fed-batch experiment with the substances according to the invention (Example 2, Table 2); type: cell-based, Chinese hamster; design: Viabil.: concentration or dose not given beside the values
# Text: Feed took place at regular intervals.
# [2] = tested on: CHO cell line that expresses an antibody; settings: fed-batch, glutamine-free basal and feed media, substance 0.5-1 g/l
# Text: (§1) A CHO cell line that expresses an antibody was used for the experiments.
# This is a serum-free, protein-free nutrient medium. It is a ready-made, sterile-filtered nutrient medium.
# After 1-4 days the cells were supplemented with a feed medium, i.e. the process was switched to fed-batch mode. Feed took place at regular intervals. In fed-batch experiments, a protein-free and serum-free feed medium from the company HyQ (R05.2 supplement, Cat. No.: SH30584.04, Lot No.: APF21457G) was used.
# All substances (chemicals) used according to the invention were obtained from the company Sigma and stock solutions were prepared from them. From the stock solutions, the substances were put at the desired final concentration in culture tubes. The various culture tubes prepared in this way were finally inoculated with the antibody-producing CHO-clone at a target inoculation cell concentration (1-3×10^5/ml). For this, the corresponding amount of inoculum cells was calculated and the required amount of inoculum cell suspension was centrifuged. […] In this way the desired inoculation cell concentration was adjusted in the cell suspension being investigated. The cell suspension thus prepared was proportioned in the culture tubes, which were provided with the substances according to the invention beforehand. The culture tubes were incubated at 37° C., and 8% CO2 atmosphere, with shaking. The culture tubes were cultivated for 8-11 days in the batch mode or in the fed-batch mode. Samples for offline measurement of the variables were taken from the culture vessels at regular intervals, for example daily or on every third day. The metabolic variables and cell concentrations of the samples were measured. Cell concentration and cell vitality were measured with a CeDex instrument. The metabolic variables (glucose, lactate, glutamine and ammonium) were determined with an analyzer (BioProfile 100).
# (§2) The following final concentrations of the substances according to the invention were established in a nutrient medium after inoculation:
# The substances according to the invention were tested under fed-batch conditions. […] The feed medium used was from the company HyQ (R05.2 supplement, Cat. No.: SH30584.04, Lot No.: APF21457G). The feed medium was glutamine-free (Table 4).
# [3] = tested on: CHO cell line that expresses an antibody; settings: fed-batch, basal medium 4 mM glutamine, feed with 3 g/l Ala-Gln and 3 g/l Gly-Gln, substance 0.5-1 g/l
# Protocol: as §1
# The experiments were carried out either in batch mode or in fed-batch mode. When the process was carried out in fed-batch mode, the process was first started in batch mode in the above-mentioned basal medium and cells were cultivated in this manner for 1-4 days. After 1-4 days the cells were supplemented with a feed medium, i.e. the process was switched to fed-batch mode. Feed took place at regular intervals. In fed-batch experiments, a protein-free and serum-free feed medium from the company HyQ (R05.2 supplement, Cat. No.: SH30584.04, Lot No.: APF21457G) was used.
# From the stock solutions, the substances were put at the desired final concentration in culture tubes. The various culture tubes prepared in this way were finally inoculated with the antibody-producing CHO-clone at a target inoculation cell concentration (1-3×10^5/ml). For this, the corresponding amount of inoculum cells was calculated and the required amount of inoculum cell suspension was centrifuged. […] In this way the desired inoculation cell concentration was adjusted in the cell suspension being investigated. The cell suspension thus prepared was proportioned in the culture tubes, which were provided with the substances according to the invention beforehand. The culture tubes were incubated at 37° C., and 8% CO2 atmosphere, with shaking. The culture tubes were cultivated for 8-11 days in the batch mode or in the fed-batch mode. Samples for offline measurement of the variables were taken from the culture vessels at regular intervals, for example daily or on every third day. The metabolic variables and cell concentrations of the samples were measured. Cell concentration and cell vitality were measured with a CeDex instrument. The metabolic variables (glucose, lactate, glutamine and ammonium) were determined with an analyzer (BioProfile 100).
# as §2
# The substances according to the invention were tested under fed-batch conditions. […] The feed medium used was from the company HyQ (R05.2 supplement, Cat. No.: SH30584.04, Lot No.: APF21457G). 3 g/l alanyl-glutamine (Ala-Gin) and 3 g/l glycyl-glutamine (Gly-Gln) were added to the feed medium.
# [4] = tested on: CHO cell line that expresses an antibody; experiment: Batch experiment with the substances according to the invention (Example 1); type: cell-based, Chinese hamster; settings: batch mode, substance 0.5-1 g/l, basal medium glucose 4.7 g/l, glutamine […]
smiles,measurement,setting,value
O=C(O)CCC(=O)C(=O)O [α-Keto-glutarate],Viabil.,"[1]; day 0, fed-batch",91%
same,Viabil.,"[1]; day 2, fed-batch",97%
same,Viabil.,"[1]; day 5, fed-batch",97%
same,Viabil.,"[1]; day 8, fed-batch",95%
same,Sp. Gluc cons.,[2]; day 0,94
same,Sp. NH4 prod,[2]; day 0,100 % of control
same,TCD,[2]; day 0,100 % of control
same,VCD,[2]; day 0,100 % of control
same,Viabil.,[2]; day 0,94%
same,Sp. Gluc cons.,[2]; day 3,98
same,Sp. Lactate prod.,[2]; day 3,70 % of control
same,Sp. NH4 prod,[2]; day 3,94 % of control
same,TCD,[2]; day 3,94 % of control
same,VCD,[2]; day 3,103 % of control
same,Viabil.,[2]; day 3,96%
same,Sp. Gluc cons.,[2]; day 5,98
same,Sp. Lactate prod.,[2]; day 5,72 % of control
same,Sp. NH4 prod,[2]; day 5,94 % of control
same,TCD,[2]; day 5,103 % of control
same,Viabil.,[2]; day 5,93%
same,Sp. Gluc cons.,[2]; day 7,95
same,Sp. Lactate prod.,[2]; day 7,72 % of control
same,Sp. NH4 prod,[2]; day 7,95 % of control
same,TCD,[2]; day 7,96 % of control
same,VCD,[2]; day 7,99 % of control
same,Viabil.,[2]; day 7,90%
same,Sp. Gluc cons.,[2]; day 9,109
same,Sp. Lactate prod.,[2]; day 9,79 % of control
same,Sp. NH4 prod,[2]; day 9,103 % of control
same,TCD,[2]; day 9,92 % of control
same,VCD,[2]; day 9,92 % of control
same,Viabil.,[2]; day 9,93%
same,Viabil.,[3]; day 0,96%
same,Viabil.,[3]; day 3,93%
same,Viabil.,[3]; day 5,96%
same,Viabil.,[3]; day 7,84%
same,Viabil.,[3]; day 9,67%
CC(=O)C(=O)[O-].[Na+] [Sodium pyruvate],Gln,[4]; day 0,1.53 mM
same,Glucose,[4]; day 0,4.69 g/L
same,Lactate,[4]; day 0,0 g/L
same,NH4,[4]; day 0,1.22 mM
same,Specific Glutamin consumption (Gln/VCD),[4]; day 0,1.49
same,Specific ammonia production (NH4/VCD),[4]; day 0,1.18
same,Specific glucose consumption (Gluc/VCD),[4]; day 0,4.55
same,Specific lactate production (Lac/VCD),[4]; day 0,0.00
same,Total Cell Density TCD,[4]; day 0,1.07 E5/ml
same,Viabil.,[4]; day 0,96%
same,Viable Cell Density (VCD),[4]; day 0,1.03 E5/ml
same,Gln,[4]; day 3,1.02 mM
same,Glucose,[4]; day 3,4.55 g/L
same,Lactate,[4]; day 3,0.38 g/L
same,NH4,[4]; day 3,1.72 mM
same,Specific Glutamin consumption (Gln/VCD),[4]; day 3,0.13
same,Specific ammonia production (NH4/VCD),[4]; day 3,0.22
same,Specific glucose consumption (Gluc/VCD),[4]; day 3,0.59
same,Specific lactate production (Lac/VCD),[4]; day 3,0.05
same,Total Cell Density TCD,[4]; day 3,7.8 E5/ml
same,Viabil.,[4]; day 3,99%
same,Viable Cell Density (VCD),[4]; day 3,7.7 E5/ml
same,Gln,[4]; day 6,0.25 mM
same,Glucose,[4]; day 6,2.81 g/L
same,Lactate,[4]; day 6,1.32 g/L
same,NH4,[4]; day 6,1.91 mM
same,Specific Glutamin consumption (Gln/VCD),[4]; day 6,0.01
same,Specific ammonia production (NH4/VCD),[4]; day 6,0.04
same,Specific glucose consumption (Gluc/VCD),[4]; day 6,0.06
same,Specific lactate production (Lac/VCD),[4]; day 6,0.03
same,Total Cell Density TCD,[4]; day 6,45 E5/ml
same,Viabil.,[4]; day 6,98%
same,Viable Cell Density (VCD),[4]; day 6,44 E5/ml
same,Gln,[4]; day 8,0.38 mM
same,Glucose,[4]; day 8,1.79 g/L
same,Lactate,[4]; day 8,1.34 g/L
same,NH4,[4]; day 8,2.23 mM
same,Specific Glutamin consumption (Gln/VCD),[4]; day 8,0.02
same,Specific ammonia production (NH4/VCD),[4]; day 8,0.10
same,Specific glucose consumption (Gluc/VCD),[4]; day 8,0.08
same,Specific lactate production (Lac/VCD),[4]; day 8,0.06
same,Total Cell Density TCD,[4]; day 8,24.5 E5/ml
same,Viabil.,[4]; day 8,88%
same,Viable Cell Density (VCD),[4]; day 8,21.6 E5/ml
same,Gln,[4]; day 11,0.49 mM
same,Glucose,[4]; day 11,0.63 g/L
same,Lactate,[4]; day 11,1.93 g/L
same,NH4,[4]; day 11,3.06 mM
same,Specific Glutamin consumption (Gln/VCD),[4]; day 11,0.05
same,Specific ammonia production (NH4/VCD),[4]; day 11,0.30
same,Specific glucose consumption (Gluc/VCD),[4]; day 11,0.06
same,Specific lactate production (Lac/VCD),[4]; day 11,0.19
same,Total Cell Density TCD,[4]; day 11,24.2 E5/ml
same,Viabil.,[4]; day 11,43%
same,Viable Cell Density (VCD),[4]; day 11,10.3 E5/ml
same,Total Cell Density TCD,"[1]; day 0, fed-batch",1.5 E5/ml
same,Viabil.,"[1]; day 0, fed-batch",91%
same,Viable Cell Density (VCD),"[1]; day 0, fed-batch",1.37 E5/ml
same,Total Cell Density TCD,"[1]; day 2, fed-batch",3.2 E5/ml
same,Viabil.,"[1]; day 2, fed-batch",97%
same,Viable Cell Density (VCD),"[1]; day 2, fed-batch",3.1 E5/ml
same,Total Cell Density TCD,"[1]; day 5, fed-batch",13.7 E5/ml
same,Viabil.,"[1]; day 5, fed-batch",99%
same,Viable Cell Density (VCD),"[1]; day 5, fed-batch",13.5 E5/ml
same,Total Cell Density TCD,"[1]; day 8, fed-batch",46 E5/ml
same,Viabil.,"[1]; day 8, fed-batch",90%
same,Viable Cell Density (VCD),"[1]; day 8, fed-batch",41.5 E5/ml
